Measured values reported in paper PMC8403869 (Proceedings of the National Academy of Sciences of the …, 2021).

Legend:
[1] = biological target: T1, human ABCG5-ABCG8 heterodimer (G5G8) (Homo sapiens, UniProt Q9H221+Q9H222); assay: […]phosphate release ATPase assay; format: biochemical; settings: 2.5 mM gamma-[32P]ATP (labelled compound), 2.5 mM MgCl2, liver polar lipids, 1% sodium cholate, pH 7.5, 37 °C
T1 construct: heterodimer; HEK-293S GnTI- or Pichia pastoris
T1 sequence (Q9H222 1-651): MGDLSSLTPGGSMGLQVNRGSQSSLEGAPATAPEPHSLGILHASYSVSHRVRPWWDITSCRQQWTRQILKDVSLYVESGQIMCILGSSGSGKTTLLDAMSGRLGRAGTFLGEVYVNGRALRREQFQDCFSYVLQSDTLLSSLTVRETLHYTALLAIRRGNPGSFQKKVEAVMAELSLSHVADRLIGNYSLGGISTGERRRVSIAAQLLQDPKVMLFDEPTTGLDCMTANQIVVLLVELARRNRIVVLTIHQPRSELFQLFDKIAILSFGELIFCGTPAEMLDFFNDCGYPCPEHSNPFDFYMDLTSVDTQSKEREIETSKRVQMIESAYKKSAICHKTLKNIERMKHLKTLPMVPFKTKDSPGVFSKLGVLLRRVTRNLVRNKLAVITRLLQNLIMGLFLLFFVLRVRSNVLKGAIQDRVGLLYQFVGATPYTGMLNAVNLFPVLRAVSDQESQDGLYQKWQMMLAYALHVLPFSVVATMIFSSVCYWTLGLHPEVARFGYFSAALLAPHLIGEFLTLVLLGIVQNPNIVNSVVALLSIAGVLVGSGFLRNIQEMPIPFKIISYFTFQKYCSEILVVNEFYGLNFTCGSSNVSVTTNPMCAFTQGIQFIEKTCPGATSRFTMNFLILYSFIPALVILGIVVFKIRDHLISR
T1 sequence (Q9H221 1-673): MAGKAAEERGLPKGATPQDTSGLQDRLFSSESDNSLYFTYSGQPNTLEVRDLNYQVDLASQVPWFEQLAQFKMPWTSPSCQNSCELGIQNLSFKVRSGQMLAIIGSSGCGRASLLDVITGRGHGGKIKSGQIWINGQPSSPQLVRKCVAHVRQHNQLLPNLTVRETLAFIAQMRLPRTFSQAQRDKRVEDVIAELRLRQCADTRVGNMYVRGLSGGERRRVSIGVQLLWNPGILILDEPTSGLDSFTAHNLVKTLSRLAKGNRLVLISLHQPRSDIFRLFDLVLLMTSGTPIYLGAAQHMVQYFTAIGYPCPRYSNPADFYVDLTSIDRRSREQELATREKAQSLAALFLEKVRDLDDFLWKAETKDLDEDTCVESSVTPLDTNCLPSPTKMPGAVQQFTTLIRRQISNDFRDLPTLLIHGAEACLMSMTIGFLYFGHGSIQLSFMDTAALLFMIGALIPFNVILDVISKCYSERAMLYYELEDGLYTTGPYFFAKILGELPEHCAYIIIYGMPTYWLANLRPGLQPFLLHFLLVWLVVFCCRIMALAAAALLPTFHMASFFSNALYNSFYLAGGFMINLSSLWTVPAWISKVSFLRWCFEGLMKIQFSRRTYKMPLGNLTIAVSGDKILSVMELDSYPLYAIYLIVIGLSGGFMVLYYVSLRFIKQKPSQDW

human ABCG1 (G1) = biological target: T2, human ABCG1 (G1) (Homo sapiens, UniProt P45844); assay: NADH-coupled ATPase stimulation; format: biochemical; settings: 0.25 mM cholesterol, 0.5-20 mM ATP, 2 mM MgCl2, pH 7.5, 37 °C
T2 construct: full-length cDNA, N-terminal Flag tag; homodimer; WT from Sf9, E242Q from HEK-293S GnTI-; LMNG then digitonin

| SMILES | [32P]phosphate release ATPase assay [1] | ATPase stimulation (human ABCG1 (G1)) |
| --- | --- | --- |
| Nc1ncnc2c1ncn2[C@@H]1O[C@H](COP(=O)(O)OP(=O)(O)OP(=O)(O)O)[C@@H](O)[C@H]1O [ATP] | The ATPase activity of purified G5G8 was determined as described | – |
| CC(C)CCC[C@@H](C)[C@H]1CC[C@H]2[C@@H]3CC=C4C[C@@H](O)CC[C@]4(C)[C@H]3CC[C@]12C [cholesterol] | – | ATPase activity was stimulated by cholesterol but not its diastereomer, epi-cholesterol. |
